Here are results for 27 molecules from patent US20230051589A1, “COMPOUNDS AND COMPOSITIONS FOR TREATING CONDITIONS ASSOCIATED WITH NLRP ACTIVITY” (Novartis AG, priority 2018, published 2023).

pIC50: −log10 of the molar value.

The test system of the first test is IL-1β production in PMA-differentiated THP-1 cells. In words: IL-1β production in PMA-differentiated THP-1 cells stimulated with gramicidin (hTHP-1 assay, 2% fetal bovine serum; Procedures 1-3). To be noted: Homo sapiens, THP-1, hTHP-1 assay containing 2% fetal bovine serum, Table B2, class symbols; read-out: IC50. The test is classed as cell-based, human. In a few lines: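 IL-1β released into supernatants was read by HTRF after 2 h gramicidin (5 μM) challenge. Before challenge, compounds (3-fold dilutions, top 100 μM, 0.37% DMSO) were given 1 h on THP-1 cells differentiated with PMA (20 ng/ml, 16-18 h) and held in 2% FBS medium.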
By pIC50 is commonly meant the IC50 on a negative log10 scale, so that one unit is a factor of ten. As to `COc1cc(CN(C)C)ccc1S(N)(=O)=NC(=O)Nc1c2c(cc3c1CCC3)CCC2` (single isomer, unassigned) [Example 606, (R) or (S)-4-((dimethylamino)methyl)-N′-((1,2,3,5,6,7-hexahydro-s-indacen-4-yl)carbamoyl)-2-methoxybenzene-sulfonimidamide], the pIC50 was 6.00 to 6.70. With `CN(Cc1ccc(S(N)(=O)=NC(=O)Nc2c3c(cc4c2CCC4)CCC3)cc1)CC(F)F` (single isomer, unassigned) [Example 610, (R) or (S)-4-(((2,2-difluoroethyl) (methyl)amino)methyl)-N′-((1,2,3,5,6,7-hexahydro-s-indacen-4-yl)carbamoyl) benzenesulfonimidamide], the pIC50 was 5.30 to 6.00. On the same count and under the same terms, in the case of `CC(C)N(C)c1ccc(S(N)(=O)=NC(=O)Nc2c3c(cc4c2CCC4)CCC3)cc1` (single isomer, unassigned) [Example 615, (R) or (S)-N′-((1,2,3,5,6,7-hexahydro-s-indacen-4-yl)carbamoyl)-4-(isopropyl(methyl)amino) benzenesulfonimidamide] it was 4.52 to 5.30; in that of `NS(=O)(=NC(=O)Nc1c2c(cc3c1CCC3)CCC2)c1ccc(CN2CCC(F)(F)C2)cc1` (single isomer, unassigned) [Example 620, (R) or (S)-4-((3,3-difluoropymolidin-1-yl)methyl)-N′-((1,2,3,5,6,7-hexahydro-s-indacen-4-yl)carbamoyl) benzenesulfonimidamide], 5.30 to 6.00. As for `CC(O)(CO)c1ncc(S(N)(=O)=NC(=O)Nc2c3c(cc4c2CCC4)CCC3)s1` (single isomer, unassigned) [Example 626], the pIC50 was 7.40 to 8.10.

The same test, now with this note: Homo sapiens, THP-1, hTHP-1 assay containing 2% fetal bovine serum, Table B2, given as bound; read-out: IC50.
With `COc1cc(CN(C)C)ccc1S(N)(=O)=NC(=O)Nc1c2c(cc3c1CCC3)CCC2` (single isomer, unassigned) [Example 607, (S) or (R)-4-((dimethylamino)methyl)-N′-((1,2,3,5,6,7-hexahydro-s-indacen-4-yl)carbamoyl)-2-methoxybenzene-sulfonimidamide], the pIC50 is less than 4.52. Take `CN(Cc1ccc(S(N)(=O)=NC(=O)Nc2c3c(cc4c2CCC4)CCC3)cc1)CC(F)(F)F` (single isomer, unassigned) [Example 608, (R) or (R)-N′-((1,2,3,5,6,7-hexahydro-s-indacen-4-yl)carbamoyl)-4-((methyl(2,2,2-trifluoroethyl)amino)methyl) benzenesulfonimidamide]: the pIC50 is less than 4.52. Turning to `CN(Cc1ccc(S(N)(=O)=NC(=O)Nc2c3c(cc4c2CCC4)CCC3)cc1)CC(F)F` (single isomer, unassigned) [Example 611, (S) or (R)-4-(((2,2-difluoroethyl) (methyl)amino)methyl)-N′-((1,2,3,5,6,7-hexahydro-s-indacen-4-yl)carbamoyl) benzenesulfonimidamide], the pIC50 is less than 4.52. Still for that read-out and setting: in the case of `NS(=O)(=NC(=O)Nc1c2c(cc3c1CCC3)CCC2)c1ccccc1` (single isomer, unassigned) [Example 612, (R) or (S)-N′-((1,2,3,5,6,7-hexahydro-s-indacen-4-yl)carbamoyl) benzenesulfonimidamide] it was less than 4.52; in that of `CC(C)N(C)c1ccc(S(N)(=O)=NC(=O)Nc2c3c(cc4c2CCC4)CCC3)cc1` (single isomer, unassigned) [Example 614, (S) or (R)-N′-((1,2,3,5,6,7-hexahydro-s-indacen-4-yl)carbamoyl)-4-(isopropyl(methyl)amino) benzenesulfonimidamide], less than 4.52. On to `CC(C)Cc1ccc(S(N)(=O)=NC(=O)Nc2c3c(cc4c2CCC4)CCC3)cc1` (single isomer, unassigned) [Example 618, (S) or (R)-N′-((1,2,3,5,6,7-hexahydro-s-indacen-4-yl)carbamoyl)-4-isobutylbenzene-sulfonimidamide], for which the pIC50 was less than 4.52.

With `NS(=O)(=NC(=O)Nc1c2c(cc3c1CCC3)CCC2)c1ccc(CN2CCC(F)(F)C2)cc1` (single isomer, unassigned) [Example 621, (S) or (R)-4-((3,3-difluoropymolidin-1-yl)methyl)-N′-((1,2,3,5,6,7-hexahydro-s-indacen-4-yl)carbamoyl) benzenesulfonimidamide], the pIC50 was less than 4.52. `NS(=O)(=NC(=O)Nc1c2c(cc3c1CCC3)CCC2)c1ccc(C2CCNC2)cc1F` (single isomer, unassigned) [Example 622, (R,S) or (S,S)-2-fluoro-N′-((1,2,3,5,6,7-hexahydro-s-indacen-4-yl)carbamoyl)-4-pyrrolidin-3-yl) benzenesulfonimidamide]: the negative logarithm of the IC50 (pIC50) was less than 4.52.

Staying with this test, now noted: hTHP-1 assay containing 2% fetal bovine serum, Table B2, class symbols; read-out: IC50.
As to `CNC(C)(C)c1ccc(S(N)(=O)=NC(=O)Nc2c3c(cc4c2CCC4)CCC3)cc1` (single isomer, unassigned) [Example 603, (R) or (S)-N′-((1,2,3,5,6,7-hexahydro-s-indacen-4-yl)carbamoyl)-4-(2-(methylamino)propan-2-yl) benzenesulfonimidamide], the pIC50 was 4.52 to 5.30. Still for that read-out and setting: in the case of `CN(C)Cc1ccc([S@](N)(=O)=NC(=O)Nc2c3c(cc4c2CCC4)CCC3)cc1F` (single isomer, unassigned) [Example 605, (R) or (S)-4-((dimethylamino)methyl)-3-fluoro-N′-((1,2,3,5,6,7-hexahydro-s-indacen-4-yl)carbamoyl) benzenesulfonimidamide] it was 6.00 to 6.70. Regarding `CN(C)Cc1ccc(S(N)(=O)=NC(=O)Nc2c3c(cc4c2CCC4)CCC3)cn1` (single isomer, unassigned) [Example 616, (S) or (R)-6-((dimethylamino)methyl)-N′-((1,2,3,5,6,7-hexahydro-s-indacen-4-yl)carbamoyl) pyridine-3-sulfonimidamide], the pIC50 was 4.52 to 5.30. Same read-out and setting: under `CN(C)Cc1ccc(S(N)(=O)=NC(=O)Nc2c3c(cc4c2CCC4)CCC3)cn1` (single isomer, unassigned) [Example 617, (R) or (S)-6-((dimethylamino)methyl)-N′-((1,2,3,5,6,7-hexahydro-s-indacen-4-yl)carbamoyl) pyridine-3-sulfonimidamide] stands 6.00 to 6.70; under `NS(=O)(=NC(=O)Nc1c2c(cc3c1CCC3)CCC2)c1ccc(C2CCNC2)cc1F` (single isomer, unassigned) [Example 624, (R,R) or (S,R)-2-fluoro-N′-((1,2,3,5,6,7-hexahydro-s-indacen-4-yl)carbamoyl)-4-pyrrolidin-3-yl) benzenesulfonimidamide], 6.00 to 6.70; under `NS(=O)(=NC(=O)Nc1c2c(cc3c1CCC3)CCC2)c1ccc(C2CCNC2)cc1F` (single isomer, unassigned) [Example 625, (S,R) or (R,R)-2-fluoro-N′-((1,2,3,5,6,7-hexahydro-s-indacen-4-yl)carbamoyl)-4-pyrrolidin-3-yl) benzenesulfonimidamide], 6.00 to 6.70. On the same count and under the same terms, in the case of `CC(O)(CO)c1ncc(S(N)(=O)=NC(=O)Nc2c3c(cc4c2CCC4)CCC3)s1` (single isomer, unassigned) [Example 627, (R,S) or (S,S)-1,2-dihydroxypropan-2-yl)-N′-((l,2,3,5,6,7-hexahydro-s-indacen-4-yl) carbamoyl) thiazole-5-sulfonimidamide] it was 6.00 to 6.70; in that of `CC(O)(CO)c1ncc(S(N)(=O)=NC(=O)Nc2c3c(cc4c2CCC4)CCC3)s1` (single isomer, unassigned) [Example 628, (S,S) or (R,S)-1,2-dihydroxypropan-2-yl)-N′-((l,2,3,5,6,7-hexahydro-s-indacen-4-yl) carbamoyl) thiazole-5-sulfonimidamide], 6.00 to 6.70; in that of `CC(O)(CO)c1cc(F)c(S(N)(=O)=NC(=O)Nc2c3c(c(C#N)c4c2CCC4)CCC3)s1` (single isomer, unassigned) [Example 629, (S,R) or (R,R)-N′-((8-cyano-1,2,3,5,6,7-hexahydro-s-indacen-4-yl)carbamoyl)-5-(1,2-dihydroxypropan-2-yl)-3-fluorothiophene-2-sulfonimidamide], 6.70 to 7.40.

Staying with this test, now noted: hTHP-1 assay containing 2% fetal bovine serum, Table B2, given as bound; read-out: IC50.
Consider `CN(C)Cc1ccc([S@@](N)(=O)=NC(=O)Nc2c3c(cc4c2CCC4)CCC3)cc1F` (single isomer, unassigned) [Example 604, (S) or (R)-4-((dimethylamino)methyl)-3-fluoro-N′-((1,2,3,5,6,7-hexahydro-s-indacen-4-yl)carbamoyl) benzenesulfonimidamide], for which the pIC50 is less than 4.52. As for `CN(Cc1ccc(S(N)(=O)=NC(=O)Nc2c3c(cc4c2CCC4)CCC3)cc1)CC(F)(F)F` (single isomer, unassigned) [Example 609, (S) or (R)-N′-((1,2,3,5,6,7-hexahydro-s-indacen-4-yl)carbamoyl)-4-((methyl(2,2,2-trifluoroethyl)amino)methyl) benzenesulfonimidamide], the pIC50 is less than 4.52.

For `NS(=O)(=NC(=O)Nc1c2c(cc3c1CCC3)CCC2)c1ccccc1` (single isomer, unassigned) [Example 613, (S) or (R)-N′-((1,2,3,5,6,7-hexahydro-s-indacen-4-yl)carbamoyl) benzenesulfonimidamide], the pIC50 is less than 4.52.

For `CC(C)Cc1ccc(S(N)(=O)=NC(=O)Nc2c3c(cc4c2CCC4)CCC3)cc1` (single isomer, unassigned) [Example 619, (R) or (S)-N′-((1,2,3,5,6,7-hexahydro-s-indacen-4-yl)carbamoyl)-4-isobutylbenzene-sulfonimidamide], the pIC50 was less than 4.52.

In the case of `NS(=O)(=NC(=O)Nc1c2c(cc3c1CCC3)CCC2)c1ccc(C2CCNC2)cc1F` (single isomer, unassigned) [Example 623, (S,S) or (R,S)-2-fluoro-N′-((1,2,3,5,6,7-hexahydro-s-indacen-4-yl)carbamoyl)-4-(- pyrrolidin-3-yl) benzenesulfonimidamide], the pIC50 was less than 4.52.
